Consider 42 compounds from US20130096119A1, “Isoquinolin-3-Ylurea Derivatives” (priority 2010, published 2013).

Converted amounts (≈) assume the structure as drawn.

The test deals with S. pneumoniae ATCC 49619. Kind of test: Minimal inhibitory concentration (MIC) by microdilution method (CLSI M7-A7). In kind it is cell-based, Streptococcus pneumoniae. The following applies: Streptococcus pneumoniae, ATCC49619, cation-adjusted Mueller-Hinton Broth supplemented with 3% (v/v) lysed horse blood. On the procedure:
Minimal inhibitory concentrations (MICs; mg/l) were determined in cation-adjusted Mueller-Hinton Broth (supplemented with 3% (v/v) lysed horse blood for testing Streptococcus pneumoniae) by a microdilution method following the description given in “Methods for Dilution Antimicrobial Susceptibility Tests for Bacteria that Grow Aerobically”, Approved standard, 7th ed., Clinical and Laboratory Standards Institute (CLSI) Document M7-A7, Wayne, Pa., USA, 2006.
In the case of `CCNC(=O)Nc1cc2cc(-c3ccc(CNC(C)=O)cc3)cc(C)c2cn1` [Example 81, N-{4-[3-(3-ethyl-ureido)-8-methyl-isoquinolin-6-yl]-benzyl}-acetamide], 0.5 µg/mL (≈ 1.33 µM) was the least that counted as inhibitory (MIC).

In the case of `CCNC(=O)Nc1cc2c(-c3ccnc(C)c3)ccc(Nc3cccc(C(=O)O)c3)c2cn1` [Example 246, 3-[3-(3-ethyl-ureido)-5-(2-methyl-pyridin-4-yl)-isoquinolin-8-ylamino]-benzoic acid], the minimum inhibitory concentration (MIC) was 0.5 µg/mL (≈ 1.13 µM).

Regarding `CCNC(=O)Nc1cc2cc(-c3ccc(OC)nc3)cc(C)c2cn1` [Example 89, 1-ethyl-3-[6-(6-methoxy-pyridin-3-yl)-8-methyl-isoquinolin-3-yl]-urea], the minimal inhibitory concentration (MIC) was 0.5 µg/mL (≈ 1.49 µM).

On to `CCNC(=O)Nc1cc2cc(-c3cccc(C(C)=O)c3)cc(C)c2cn1` [Example 29, 1-[6-(3-acetyl-phenyl)-8-methyl-isoquinolin-3-yl]-3-ethyl-urea], for which 0.5 µg/mL (≈ 1.44 µM) was the least that counted as inhibitory (MIC).

For the compound `CCNC(=O)Nc1cc2c(-c3ccc(CO)cc3)ccc(Nc3cccc(C(=O)N(C)C)c3)c2cn1` [Example 251, 3-[3-(3-ethyl-ureido)-5-(4-hydroxymethyl-phenyl)-isoquinolin-8-ylamino]-N,N-dimethyl-benzamide], the MIC came out at 1 µg/mL (≈ 2.07 µM).

As to `CCNC(=O)Nc1cc2cc(-c3cccc4cnccc34)cc(C)c2cn1` [Example 104, 1-ethyl-3-(8′-methyl-[5,6′]biisoquinolinyl-3′-yl)-urea], the minimal inhibitory concentration (MIC) turned out to be 8 µg/mL (≈ 22.4 µM).

The compound `CCNC(=O)Nc1cc2cccc(Nc3ccc(C(=O)OC)cc3)c2cn1` [Example 179, 4-[3-(3-ethyl-ureido)-isoquinolin-8-ylamino]-benzoic acid methyl ester] gave an MIC of 4 µg/mL (≈ 11 µM). This MIC is about 2-fold lower than that of the compound before.

`CCNC(=O)Nc1cc2c(-c3cccnc3)ccc(Oc3cccnc3)c2cn1` [Example 223, 1-ethyl-3-[5-pyridin-3-yl-8-(pyridin-3-yloxy)-isoquinolin-3-yl]-urea] yielded an MIC of 0.5 µg/mL (≈ 1.3 µM).

Compound `CCNC(=O)Nc1cc2c(-c3ccc(CO)cc3)ccc(C)c2cn1` [Example 34, 1-ethyl-3-[5-(4-hydroxymethyl-phenyl)-8-methyl-isoquinolin-3-yl]-urea] gave an MIC of 2 µg/mL (≈ 5.96 µM). This MIC lies about 4-fold higher than the previous one.

`CCNC(=O)Nc1cc2cc(-c3cncc(C)c3)cc(Nc3cccnc3)c2cn1` [Example 237, 1-ethyl-3-[6-(5-methyl-pyridin-3-yl)-8-(pyridin-3-ylamino)-isoquinolin-3-yl]-urea] registered an MIC of 0.25 µg/mL (≈ 0.627 µM).

In the case of `CCNC(=O)Nc1cc2cc(-c3cccc(C(N)=O)c3)cc(C)c2cn1` [Example 31, 3-[3-(3-ethyl-ureido)-8-methyl-isoquinolin-6-yl]-benzamide], inhibition of growth (MIC) required 1 µg/mL (≈ 2.87 µM).

In turn, `CCNC(=O)Nc1cc2c(-c3cccc(CN)c3)ccc(C)c2cn1` [Example 11, 1-[5-(3-(aminomethyl)-phenyl)-8-methyl-isoquinolin-3-yl]-3-ethyl-urea] displayed an MIC of 2 µg/mL (≈ 5.98 µM).

`CCNC(=O)Nc1cc2cccc(CNc3ccnn3C)c2cn1.Cl` [Example 303, 1-ethyl-3-{8-[(2-methyl-2H-pyrazol-3-ylamino)-methyl]-isoquinolin-3-yl}-urea hydrochloride]: the minimum inhibitory concentration (MIC) turned out to be 4 µg/mL.

As to `CCNC(=O)Nc1cc2c(-c3cccc(NC(C)=O)c3)ccc(C)c2cn1` [Example 4, N-{3-[3-(3-ethyl-ureido)-8-methyl-isoquinolin-5-yl]-phenyl}-acetamide], inhibition of growth (MIC) required 8 µg/mL (≈ 22.1 µM). Against the preceding compound, the MIC is about 2-fold higher.

Consider `CCNC(=O)Nc1cc2cccc(Nc3ccc(CC(=O)NCc4ccccc4)cc3)c2cn1.Cl` [Example 208, N-benzyl-2-{4-[3-(3-ethyl-ureido)-isoquinolin-8-ylamino]-phenyl}-acetamide hydrochloride], for which the MIC was determined as 8 µg/mL.

On to `CCNC(=O)Nc1cc2cc(-c3cncc(S(C)(=O)=O)c3)cc(C)c2cn1` [Example 103, 1-ethyl-3-[6-(5-methanesulfonyl-pyridin-3-yl)-8-methyl-isoquinolin-3-yl]-urea], for which the minimum inhibitory concentration (MIC) worked out at 0.5 µg/mL (≈ 1.3 µM).

As to `CCNC(=O)Nc1cc2c(-c3ccnc(F)c3)ccc(C)c2cn1` [Example 41, 1-ethyl-3-[5-(2-fluoro-pyridin-4-yl)-8-methyl-isoquinolin-3-yl]-urea], the minimal inhibitory concentration (MIC) was 2 µg/mL (≈ 6.17 µM).

In turn, `CCNC(=O)Nc1cc2cc(-c3ccc(C(C)=O)cc3)cc(C)c2cn1` [Example 108, 1-[6-(4-acetyl-phenyl)-8-methyl-isoquinolin-3-yl]-3-ethyl-urea] registered an MIC of 0.5 µg/mL (≈ 1.44 µM).

Regarding `CCNC(=O)Nc1cc2c(-c3ccnc(C)c3)ccc(C)c2cn1` [Example 40, 1-ethyl-3-[8-methyl-5-(2-methyl-pyridin-4-yl)-isoquinolin-3-yl]-urea], the MIC stood at 2 µg/mL (≈ 6.24 µM).

Consider `CCNC(=O)Nc1cc2cccc(Nc3cnccn3)c2cn1` [Example 148, 1-ethyl-3-[8-(pyrazin-2-ylamino)-isoquinolin-3-yl]-urea], for which the minimal inhibitory concentration (MIC) turned out to be 2 µg/mL (≈ 6.49 µM).

The compound `CCNC(=O)Nc1cc2cccc(Nc3ccc(C(N)=O)cn3)c2cn1.Cl` [Example 156, 6-[3-(3-ethyl-ureido)-isoquinolin-8-ylamino]-nicotinamide hydrochloride] returned a minimal inhibitory concentration (MIC) of 2 µg/mL.

`CCNC(=O)Nc1cc2cccc(Nc3ccc(C(=O)N(C)C)cc3)c2cn1.Cl` [Example 203, 4-[3-(3-ethyl-ureido)-isoquinolin-8-ylamino]-N,N-dimethyl-benzamide hydrochloride] returned an MIC of 2 µg/mL.

With `CCNC(=O)Nc1cc2c(F)c(-c3ccc(S(N)(=O)=O)cc3)cc(Cl)c2cn1` [Example 111, 4-[8-chloro-3-(3-ethyl-ureido)-5-fluoro-isoquinolin-6-yl]-benzenesulfonamide], the MIC turned out to be 1 µg/mL (≈ 2.36 µM).

Take `CCNC(=O)Nc1cc2cc(-c3ccc(CC#N)cc3)cc(C)c2cn1` [Example 92, 1-[6-(4-(cyanomethyl)-phenyl)-8-methyl-isoquinolin-3-yl]-3-ethyl-urea]: it took 0.25 µg/mL (≈ 0.726 µM) to inhibit growth (MIC). This MIC is about 4-fold lower than that of the compound before.

The compound `CCNC(=O)Nc1cc2cc(NCc3ccc4cc[nH]c4c3)cc(C)c2cn1.Cl` [Example 134, 1-ethyl-3-{6-[(1H-indol-6-ylmethyl)-amino]-8-methyl-isoquinolin-3-yl}-urea hydrochloride] showed a minimal inhibitory concentration (MIC) of 16 µg/mL.

`CCNC(=O)Nc1cc2cccc(Nc3ccc(CC(N)=O)cc3)c2cn1.Cl` [Example 253, 2-{4-[3-(3-ethyl-ureido)-isoquinolin-8-ylamino]-phenyl}-acetamide hydrochloride] displayed an MIC of 4 µg/mL. Compared with the last compound, the MIC is about 4-fold lower.

For `CCNC(=O)Nc1cc2cccc(Nc3ccccc3)c2cn1` [Example 169, 1-ethyl-3-(8-phenylamino-isoquinolin-3-yl)-urea], the minimum inhibitory concentration (MIC) is 1 µg/mL (≈ 3.26 µM).

On to `CCNC(=O)Nc1cc2cc(-c3cncnc3C(C)C)cc(C)c2cn1` [Example 95, 1-ethyl-3-[6-(4-isopropyl-pyrimidin-5-yl)-8-methyl-isoquinolin-3-yl]-urea], for which the MIC is 16 µg/mL (≈ 45.8 µM).

The compound `CCNC(=O)Nc1cc2c(F)c(-c3ccccn3)cc(C)c2cn1` [Example 48, 1-ethyl-3-(5-fluoro-8-methyl-6-pyridin-2-yl-isoquinolin-3-yl)-urea] showed an MIC of 1 µg/mL (≈ 3.08 µM).

`CCNC(=O)Nc1cc2cc(NCc3ccc(NC(C)=O)cc3)cc(C)c2cn1` [Example 137, N-(4-{[3-(3-ethyl-ureido)-8-methyl-isoquinolin-6-ylamino]-methyl}-phenyl)-acetamide] came in with a minimal inhibitory concentration (MIC) of 8 µg/mL (≈ 20.4 µM). This MIC lies about 8-fold higher than the previous one.

On to `CCNC(=O)Nc1cc2cccc(Nc3ccccn3)c2cn1` [Example 146, 1-ethyl-3-[8-(pyridin-2-ylamino)-isoquinolin-3-yl]-urea], for which the minimal inhibitory concentration (MIC) was 4 µg/mL (≈ 13 µM).

With `CCNC(=O)Nc1cc2cccc(Nc3ccc(CC(=O)O)cc3)c2cn1` [Example 205, {4-[3-(3-ethyl-ureido)-isoquinolin-8-ylamino]phenyl}-acetic acid], 4 µg/mL (≈ 11 µM) was the least that counted as inhibitory (MIC).

Turning to `CCNC(=O)Nc1cc2cccc(Nc3ccc(OC)c(C(=O)NC)c3)c2cn1` [Example 243, 5-[3-(3-ethyl-ureido)-isoquinolin-8-ylamino]-2-methoxy-N-methyl-benzamide], the minimum inhibitory concentration (MIC) was determined as 1 µg/mL (≈ 2.54 µM).

Compound `CCNC(=O)Nc1cc2c(-c3ccc(CO)cc3)ccc(Oc3cccnc3)c2cn1` [Example 221, 1-ethyl-3-[5-(4-hydroxymethyl-phenyl)-8-(pyridin-3-yloxy)-isoquinolin-3-yl]-urea] returned an MIC of 0.5 µg/mL (≈ 1.21 µM).

For the compound `CCNC(=O)Nc1cc2cc(-c3ccccc3C(=O)OCC)cc(C)c2cn1` [Example 85, 2-[3-(3-ethyl-ureido)-8-methyl-isoquinolin-6-yl]-benzoic acid ethyl ester], the minimal inhibitory concentration (MIC) was 16 µg/mL (≈ 42.4 µM).

`CCNC(=O)Nc1cc2cccc(Nc3cccnc3)c2cn1` [Example 145, 1-ethyl-3-[8-(pyridin-3-ylamino)-isoquinolin-3-yl]-urea]: 1 µg/mL (≈ 3.25 µM) was the least that counted as inhibitory (MIC).

`CCNC(=O)Nc1cc2cccc(Nc3ccc(CC(=O)NC)cc3)c2cn1.Cl` [Example 207, 2-{4-[3-(3-ethyl-ureido)-isoquinolin-8-ylamino]phenyl}-N-methyl-acetamide hydrochloride] registered an MIC of 2 µg/mL. This MIC is about 2-fold higher than that of the compound before.

As to `CCNC(=O)Nc1cc2c(-c3ccnc(C)c3)ccc(Nc3cccnc3)c2cn1` [Example 229, 1-ethyl-3-[5-(2-methyl-pyridin-4-yl)-8-(pyridin-3-ylamino)-isoquinolin-3-yl]-urea], the MIC was found to be 0.25 µg/mL (≈ 0.627 µM).

In turn, `CCNC(=O)Nc1cc2c(F)c(-c3cccc(NC(C)=O)c3)cc(-c3cnc(OC)nc3)c2cn1` [Example 114, N-{3-[3-(3-ethyl-ureido)-5-fluoro-8-(2-methoxy-pyrimidin-5-yl)-isoquinolin-6-yl]-phenyl}-acetamide] came in with an MIC of 0.5 µg/mL (≈ 1.05 µM).

In turn, `CCNC(=O)Nc1cc2cc(-c3cncc(C(=O)OC)c3)cc(C)c2cn1` [Example 87, 5-[3-(3-ethyl-ureido)-8-methyl-isoquinolin-6-yl]-nicotinic acid methyl ester] showed an MIC of 8 µg/mL (≈ 22 µM).

Compound `CCNC(=O)Nc1cc2cc(-c3cscc3C)cc(C)c2cn1` [Example 80, 1-ethyl-3-[8-methyl-6-(4-methyl-thiophen-3-yl)-isoquinolin-3-yl]-urea] came in with an MIC of 16 µg/mL (≈ 49.2 µM).

`CCNC(=O)Nc1cc2c(-c3ccnc(Cl)c3)ccc(C)c2cn1` [Example 27, 1-[5-(2-chloro-pyridin-4-yl)-8-methyl-isoquinolin-3-yl]-3-ethyl-urea] displayed a minimal inhibitory concentration (MIC) of 2 µg/mL (≈ 5.87 µM).
